Source: publication PMC9810272 (Nature, 2022)
Where two headings read alike, the source gives them in different places.

How the values were obtained:
yeast Tango2p [1] = target: T1, yeast Tango2p (Saccharomyces cerevisiae, UniProt P53275); assay: UV-vis difference spectra titration; type: binding
T1 sequence (P53275 1-312): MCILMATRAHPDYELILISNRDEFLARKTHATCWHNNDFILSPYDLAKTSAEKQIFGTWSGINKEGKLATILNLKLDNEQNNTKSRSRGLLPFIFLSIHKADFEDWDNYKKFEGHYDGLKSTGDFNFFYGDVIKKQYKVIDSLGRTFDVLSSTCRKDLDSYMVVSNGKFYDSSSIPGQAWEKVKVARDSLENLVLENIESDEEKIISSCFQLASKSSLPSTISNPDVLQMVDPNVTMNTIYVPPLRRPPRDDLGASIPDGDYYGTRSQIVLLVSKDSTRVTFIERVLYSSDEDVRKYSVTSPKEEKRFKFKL

yeast Tango2p [2] = target: T1, yeast Tango2p; assay: UV-vis difference spectra titration; type: binding; remark: listed apart in the source

Kd (yeast Tango2p [1])	Kd (yeast Tango2p [2])	SMILES
38.7 µM	–	C=CC1=C(C)C2=Cc3c(C=C)c(C)c4[n]3[Fe][n]3c(c(C)c(CCC(=O)O)c3=CC3=NC(=C4)C(C)=C3CCC(=O)O)=CC1=N2 [ferric haem]
–	15.4 µM	C=CC1=C(C)C2=Cc3c(C=C)c(C)c4[n]3[Fe][n]3c(c(C)c(CCC(=O)O)c3=CC3=NC(=C4)C(C)=C3CCC(=O)O)=CC1=N2 [ferrous haem]
